US10525063B2, “Methods of reducing mammographic breast density and/or breast cancer risk” (HAVAH THERAPEUTICS PTY LTD., priority 2014, dated 2020)
Where two headings read alike, the source gives them in different places.

Tests used:
[1] = Serum anastrozole by liquid chromatography-tandem mass spectrometry; type: in vivo, human; conditions: for concentration at 3 month / concentration at 1 month: human, serum
Procedure: FAI is calculated from a formula where the serum measurement of total testosterone and sex hormone binding globulin are calculated by radio immunoassay. Aromatase inhibitor serum level is determined by liquid chromatography-tandem mass spectrometry.
All thirty having serum drawn at baseline and at 1 year for serum testosterone and sex hormone binding globulin so that free-androgen index could be calculated (FAI=the ratio of the total testosterone level divided by the sex hormone binding globulin level, and then multiplied by a 100 to give a percentage).

[2] = system: mammographic breast density; conditions: background statement; cited from earlier work
[3] = cited from earlier work

CC(C)(C#N)c1cc(Cn2cncn2)cc(C(C)(C)C#N)c1 [anastrozole, 2,2′-[5-(1H-1,2,4-triazol-1-ylmethyl)-1,3-phenylene]bis(2-methylpropanenitrile)]
Serum anastrazole (ng/ml) End 1st year 3 month trough, median (range) ([1]; Example 2, 30 patients, s.c. testosterone and anastrozole at 4 months intervals): 32 (22-39) ng/ml
concentration at 3 month ([1]; female, sc, Example 2, 30 patients, s.c. testosterone and anastrozole at 4 months intervals, read-out: Serum anastrazole (ng/ml) 1st 3 month trough, median (range)): 27 ng/mL
concentration at 1 month ([1]; sc, Serum anastrozole, Example 1, Pellet 1 (testosterone 59 mg, anastrozole 2.75 mg, s.c.)): 38 ng/mL
concentration at 3 month ([1]; sc, Serum anastrozole, Example 1, Pellet 1 (testosterone 59 mg, anastrozole 2.75 mg, s.c.), 3 month): 28 ng/mL
concentration at 1 month ([1]; subcutaneous, Serum anastrozole, Example 1, Pellet 2 (testosterone 71 mg, anastrozole 2.75 mg)): 35 ng/mL
concentration at 3 month ([1]; subcutaneous, Serum anastrozole, Example 1, Pellet 2 (testosterone 71 mg, anastrozole 2.75 mg), 3 month): 25 ng/mL
concentration at 1 month ([1]; subcutaneous, Serum anastrozole, Example 1, Pellet 3 (testosterone 71 mg, anastrozole 2.75 mg)): 38 ng/mL
concentration at 3 month ([1]; subcutaneous, Serum anastrozole, Example 1, Pellet 3 (testosterone 71 mg, anastrozole 2.75 mg), 3 month): 28 ng/mL

CC/C(=C(\c1ccccc1)c1ccc(OCCN(C)C)cc1)c1ccccc1 [tamoxifen]
Effect on mammographic breast density [2]: has been shown to reduce mammographic breast density

CCCCCCCCCCC(=O)O[C@H]1CC[C@H]2[C@@H]3CCC4=CC(=O)CC[C@]4(C)[C@H]3CC[C@]12C [testosterone undecanoate]
Oral bioavailability ([3]; by-passes the liver via the lymphatic system): orally bioavailable

C[C@]12CC[C@H]3[C@@H](CCC4=CC(=O)CC[C@@]43C)[C@@H]1CC[C@@H]2O [testosterone]
Fraction broken down in the liver as it is absorbed from the gut ([3]; oral delivery): 80-90%
Fraction broken down in the intestines by aromatase and other metabolic pathways ([3]; oral): approximately 85%
